The values that follow are results of earlier work, collected in US6703036B1, “Stomach-action molluscicides” (priority 1997, dated 2004).

In data set [1] the test system is golden apple snail, Pomacea canaliculata. To be noted: used on its own at 100 ppm, aqueous solution on the water surface.
In a further data set the test system is rat. The settings on record: oral administration.

Turning to `CCCCCCCCCCCCOS(=O)(=O)[O-].[Na+]` [Sodium dodecyl sulphate], the molluscicidal activity result in data set [1] is “effective molluscicide”.
A word on the LD50: it is the dose expected to kill half of the subjects tested. Turning to Sorbitan monolaurate, the LD50 with rat was 33600 mg/kg.
Take Sorbitan monostearate: the LD50 in the data set with rat was 31000 mg/kg.
